Patent US8614327B2 (Vertex Pharmaceuticals Incorporated, priority 2004, dated 2013)
pEC50: −log10 of the molar value.

Biological target: T1, ΔF508-CFTR (Homo sapiens, UniProt P13569, DEL508-508)
T1 construct: expressed in transfected cells
Test: Membrane potential optical (FRET/VIPR) assay, identification of potentiator compounds
Assay type: cell-based
Details: Table 3, assay not given; for % Activity: relative efficacy
How it was run: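 Double-addition potentiator screen: compound delivered in gluconate-substituted Cl^--free medium, membrane potential followed via CC2-DMPE/DiSBAC2(3) FRET on VIPR. Cells were ΔF508-CFTR-expressing NIH3T3 mouse fibroblasts, held 2 h at 37° C. then 24 h at 27° C. before assay.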

T1 sequence (P13569 with tags, fused parts or gaps DEL508-508): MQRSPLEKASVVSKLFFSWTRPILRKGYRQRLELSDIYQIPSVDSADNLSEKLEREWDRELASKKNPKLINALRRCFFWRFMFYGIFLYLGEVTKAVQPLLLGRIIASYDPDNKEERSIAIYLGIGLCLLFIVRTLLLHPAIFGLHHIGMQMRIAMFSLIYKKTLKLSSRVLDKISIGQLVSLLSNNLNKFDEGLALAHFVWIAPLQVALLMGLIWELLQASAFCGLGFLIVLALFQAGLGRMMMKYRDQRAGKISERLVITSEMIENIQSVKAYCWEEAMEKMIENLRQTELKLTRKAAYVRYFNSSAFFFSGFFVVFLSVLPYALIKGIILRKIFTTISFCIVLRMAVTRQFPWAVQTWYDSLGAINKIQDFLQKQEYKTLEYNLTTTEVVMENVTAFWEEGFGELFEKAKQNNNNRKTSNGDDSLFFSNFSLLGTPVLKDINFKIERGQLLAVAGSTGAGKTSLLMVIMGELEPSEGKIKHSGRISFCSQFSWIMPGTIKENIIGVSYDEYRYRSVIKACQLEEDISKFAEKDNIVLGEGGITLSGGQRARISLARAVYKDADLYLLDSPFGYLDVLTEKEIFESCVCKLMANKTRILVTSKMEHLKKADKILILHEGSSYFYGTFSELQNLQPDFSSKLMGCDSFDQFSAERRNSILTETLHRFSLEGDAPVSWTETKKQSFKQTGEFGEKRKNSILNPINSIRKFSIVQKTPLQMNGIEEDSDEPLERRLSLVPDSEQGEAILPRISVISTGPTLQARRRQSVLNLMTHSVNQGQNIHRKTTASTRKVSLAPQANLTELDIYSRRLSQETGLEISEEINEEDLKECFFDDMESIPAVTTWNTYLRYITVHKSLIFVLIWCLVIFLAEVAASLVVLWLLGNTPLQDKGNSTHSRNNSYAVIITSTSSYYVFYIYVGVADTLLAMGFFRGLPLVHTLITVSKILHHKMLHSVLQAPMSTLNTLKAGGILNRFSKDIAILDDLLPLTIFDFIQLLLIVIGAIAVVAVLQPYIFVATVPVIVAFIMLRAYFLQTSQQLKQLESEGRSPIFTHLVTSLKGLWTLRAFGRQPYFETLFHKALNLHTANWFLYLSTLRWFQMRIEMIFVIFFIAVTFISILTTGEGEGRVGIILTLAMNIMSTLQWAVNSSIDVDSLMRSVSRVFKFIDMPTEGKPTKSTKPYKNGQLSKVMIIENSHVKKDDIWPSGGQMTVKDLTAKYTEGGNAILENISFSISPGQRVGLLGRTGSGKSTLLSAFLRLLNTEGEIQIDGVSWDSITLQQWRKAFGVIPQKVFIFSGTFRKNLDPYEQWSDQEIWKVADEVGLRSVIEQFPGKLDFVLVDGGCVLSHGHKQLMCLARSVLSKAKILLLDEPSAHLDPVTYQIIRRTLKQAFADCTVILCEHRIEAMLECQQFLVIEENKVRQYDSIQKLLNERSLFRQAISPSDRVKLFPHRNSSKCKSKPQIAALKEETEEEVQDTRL

SMILES	pEC50	% Activity
CCOc1cccc2c(=O)c(C(=O)Nc3cc(O)c(C(C)(C)C)cc3C(C)(C)C)c[nH]c12 [Compound 616, 8-ethoxy-N-(5-hydroxy-2,4-ditert-butyl-phenyl)-4-oxo-1H-quinoline-3-carboxamide]	4.60 to 5.00	+ (<25%)
COc1cc2[nH]cc(C(=O)Nc3cc(O)c(C(C)(C)C)cc3C(C)(C)C)c(=O)c2cc1F [Compound 617, 6-fluoro-N-(5-hydroxy-2,4-ditert-butyl-phenyl)-7-methoxy-4-oxo-1H-quinoline-3-carboxamide]	> 5.00	+++ (>100%)
C[C@H]1CCCN1c1ccc(NC(=O)c2c[nH]c3ccccc3c2=O)c(C(F)(F)F)c1 [Compound 618, (S)-N-(4-(2-methylpyrrolidin-1-yl)-2-(trifluoromethyl)phenyl)-4-oxo-1,4-dihydroquinoline-3-carboxamide]	> 5.00	++ (between 25% to 100%)
O=C(Nc1cc(O)c(C2CCCCC2)cc1C(F)(F)F)c1c[nH]c2ccccc2c1=O [Compound 619, N-[4-cyclohexyl-5-hydroxy-2-(trifluoromethyl)phenyl]-4-oxo-1H-quinoline-3-carboxamide]	> 5.00	+++ (>100%)
Cc1cccc2c(=O)c(C(=O)Nc3cc(O)c(C(C)(C)C)cc3C(C)(C)C)c[nH]c12 [Compound 621, N-(5-hydroxy-2,4-ditert-butyl-phenyl)-8-methyl-4-oxo-1H-quinoline-3-carboxamide]	> 5.00	+ (<25%)
N#Cc1cc(N2CCCC2)ccc1NC(=O)c1c[nH]c2ccccc2c1=O [Compound 622, N-(2-cyano-4-pyrrolidin-1-yl-phenyl)-4-oxo-1H-quinoline-3-carboxamide]	> 5.00	++ (between 25% to 100%)
CC(C)(C)c1cc(C(C)(C)C)c(NC(=O)c2c[nH]c3ccc(Cl)cc3c2=O)cc1O [Compound 623, 6-chloro-N-(5-hydroxy-2,4-ditert-butyl-phenyl)-4-oxo-1H-quinoline-3-carboxamide]	> 5.00	++ (between 25% to 100%)
Cc1ccc2[nH]cc(C(=O)Nc3cc(O)c(C4(C)CCCCC4)cc3F)c(=O)c2c1 [Compound 624, N-[2-fluoro-5-hydroxy-4-(1-methylcyclohexyl)-phenyl]-6-methyl-4-oxo-1H-quinoline-3-carboxamide]	> 5.00	++ (between 25% to 100%)
Cc1cccc2c(=O)c(C(=O)Nc3cc(O)c(C(C)(C)C)cc3F)c[nH]c12 [Compound 625, N-(2-fluoro-5-hydroxy-4-tert-butyl-phenyl)-8-methyl-4-oxo-1H-quinoline-3-carboxamide]	> 5.00	+ (<25%)
Cc1cccc2[nH]cc(C(=O)Nc3ccc(N4CC[C@H](F)C4)cc3C(F)(F)F)c(=O)c12 [Compound 626, (S)-N-(4-(3-fluoropyrrolidin-1-yl)-2-(trifluoromethyl)phenyl)-5-methyl-4-oxo-1,4-dihydroquinoline-3-carboxamide]	> 5.00	++ (between 25% to 100%)
CC(CO)(CO)c1ccc(NC(=O)c2c[nH]c3ccc(F)cc3c2=O)cc1 [Compound 627, 6-fluoro-N-[4-[2-hydroxy-1-(hydroxymethyl)-1-methyl-ethyl]phenyl]-4-oxo-1H-quinoline-3-carboxamide]	> 5.00	+ (<25%)
O=C(Nc1ccc(OC(F)(F)F)cc1Cl)c1c[nH]c2ccccc2c1=O [Compound 628, N-[2-chloro-4-(trifluoromethoxy)phenyl]-4-oxo-1H-quinoline-3-carboxamide]	> 5.00	++ (between 25% to 100%)
CC(C)(C)OC(=O)[C@@H]1CCCN1c1ccc(NC(=O)c2c[nH]c3ccccc3c2=O)c(C(F)(F)F)c1 [Compound 629, (S)-tert-butyl 1-(4-(4-oxo-1,4-dihydroquinoline-3-carboxamido)-3-(trifluoromethyl)phenyl)pyrrolidine-2-carboxylate]	> 5.00	++ (between 25% to 100%)
O=C(Nc1cc(C(F)(F)F)ccc1C(F)(F)F)c1c[nH]c2ccccc2c1=O [Compound 630, N-[2,5-bis(trifluoromethyl)phenyl]-4-oxo-1H-quinoline-3-carboxamide]	> 5.00	++ (between 25% to 100%)
COC(=O)[C@]1(C)CCCN1c1ccc(NC(=O)c2c[nH]c3ccccc3c2=O)c(C(F)(F)F)c1 [Compound 631, (S)-methyl 2-methyl-1-(4-(4-oxo-1,4-dihydroquinoline-3-carboxamido)-3-(trifluoromethyl)phenyl)pyrrolidine-2-carboxylate]	> 5.00	+++ (>100%)
CC(C)(C)c1cc2cc[nH]c2cc1NC(=O)c1c[nH]c2cc(OC(F)(F)F)ccc2c1=O [Compound 632, 4-oxo-N-(5-tert-butyl-1H-indol-6-yl)-7-(trifluoromethoxy)-1H-quinoline-3-carboxamide]	> 5.00	++ (between 25% to 100%)
CC(C)(C)c1ccc(NC(=O)c2c[nH]c3cccc(O)c3c2=O)cc1O [Compound 633, 5-hydroxy-N-(3-hydroxy-4-tert-butyl-phenyl)-4-oxo-1H-quinoline-3-carboxamide]	> 5.00	++ (between 25% to 100%)

SMILES	pEC50	% Activity
O=C(Nc1ccc(N2CCC[C@H]2CO)cc1C(F)(F)F)c1c[nH]c2ccccc2c1=O [Compound 634, (S)-N-(4-(2-(hydroxymethyl)pyrrolidin-1-yl)-2-(trifluoromethyl)phenyl)-4-oxo-1,4-dihydroquinoline-3-carboxamide]	> 5.00	++ (between 25% to 100%)
O=C(Nc1ccc(C(F)(F)F)cc1Cl)c1c[nH]c2cccc(O)c2c1=O [Compound 635, N-[2-chloro-4-(trifluoromethyl)phenyl]-5-hydroxy-4-oxo-1H-quinoline-3-carboxamide]	> 5.00	++ (between 25% to 100%)
O=C(Nc1ccc(C(F)(F)F)cc1Cl)c1c[nH]c2ccc(F)cc2c1=O [Compound 636, N-[2-chloro-4-(trifluoromethyl)phenyl]-6-fluoro-4-oxo-1H-quinoline-3-carboxamide]	> 5.00	+ (<25%)
Cc1cccc2c(=O)c(C(=O)Nc3ccc(C(C)C)cc3C(F)(F)F)c[nH]c12 [Compound 637, N-[4-isopropyl-2-(trifluoromethyl)phenyl]-8-methyl-4-oxo-1H-quinoline-3-carboxamide]	> 5.00	+ (<25%)
CC(C)(C)c1cc(F)c(NC(=O)c2c[nH]c3c(C(F)(F)F)cccc3c2=O)cc1O [Compound 638, N-(2-fluoro-5-hydroxy-4-tert-butyl-phenyl)-4-oxo-8-(trifluoromethyl)-1H-quinoline-3-carboxamide]	> 5.00	+ (<25%)
CC(C)N1CCN(c2ccc(NC(=O)c3c[nH]c4ccccc4c3=O)c(C(F)(F)F)c2)CC1 [Compound 639, N-[4-(4-isopropylpiperazin-1-yl)-2-(trifluoromethyl)phenyl]-4-oxo-1H-quinoline-3-carboxamide]	> 5.00	++ (between 25% to 100%)
Cc1ccc2c(=O)c(C(=O)Nc3cc(O)c(C(C)(C)C)cc3C(C)(C)C)c[nH]c2c1 [Compound 640, N-(5-hydroxy-2,4-ditert-butyl-phenyl)-7-methyl-4-oxo-1H-quinoline-3-carboxamide]	> 5.00	+++ (>100%)
CCOc1cccc2c(=O)c(C(=O)Nc3cc4[nH]ccc4cc3C(C)(C)C)c[nH]c12 [Compound 641, 8-ethoxy-4-oxo-N-(5-tert-butyl-1H-indol-6-yl)-1H-quinoline-3-carboxamide]	4.60 to 5.00	+ (<25%)
COc1ccc2c(=O)c(C(=O)Nc3ccc(N4CCC[C@@H]4C)cc3C(F)(F)F)c[nH]c2c1 [Compound 642, (S)-7-methoxy-N-(4-(2-methylpyrrolidin-1-yl)-2-(trifluoromethyl)phenyl)-4-oxo-1,4-dihydroquinoline-3-carboxamide]	> 5.00	++ (between 25% to 100%)
Cc1cccc2[nH]cc(C(=O)Nc3ccc(N4CCCC(C)C4)cc3C(F)(F)F)c(=O)c12 (stereo not drawn) [Compound 643, 5-methyl-N-[4-(3-methyl-1-piperidyl)-2-(trifluoromethyl)phenyl]-4-oxo-1H-quinoline-3-carboxamide]	> 5.00	++ (between 25% to 100%)
Cc1cccc2c(=O)c(C(=O)Nc3cc4[nH]ccc4cc3C(C)(C)C)c[nH]c12 [Compound 644, 8-methyl-4-oxo-N-(5-tert-butyl-1H-indol-6-yl)-1H-quinoline-3-carboxamide]	> 5.00	+ (<25%)
CC(C)(C)c1ccc(NC(=O)c2c[nH]c3ccccc3c2=O)cc1F [Compound 645, N-(3-fluoro-4-tert-butyl-phenyl)-4-oxo-1H-quinoline-3-carboxamide]	> 5.00	++ (between 25% to 100%)
CC(C)(C)c1cc2cc[nH]c2cc1NC(=O)c1c[nH]c2cc(F)c(F)cc2c1=O [Compound 646, 6,7-difluoro-4-oxo-N-(5-tert-butyl-1H-indol-6-yl)-1H-quinoline-3-carboxamide]	> 5.00	++ (between 25% to 100%)
Cc1cc(C2CCCCC2)ccc1NC(=O)c1c[nH]c2ccccc2c1=O [Compound 647, N-(4-cyclohexyl-2-methyl-phenyl)-4-oxo-1H-quinoline-3-carboxamide]	> 5.00	++ (between 25% to 100%)
CCc1cc(C(C)(C)C)c(O)cc1NC(=O)c1c[nH]c2ccc(F)cc2c1=O [Compound 649, N-(2-ethyl-5-hydroxy-4-tert-butyl-phenyl)-6-fluoro-4-oxo-1H-quinoline-3-carboxamide]	> 5.00	++ (between 25% to 100%)
O=C(Nc1ccc(C(F)(F)F)c(O)c1)c1c[nH]c2ccc(F)cc2c1=O [Compound 650, 6-fluoro-N-[3-hydroxy-4-(trifluoromethyl)phenyl]-4-oxo-1H-quinoline-3-carboxamide]	> 5.00	++ (between 25% to 100%)
